This is an account of results in publication PMC11247629, “New Lipophilic Hydroxamates as Promising Trypanocidal Agents: Design, Synthesis, SAR, and Conformational Behavior Studies” (ACS Medicinal Chemistry Letters, 2024).

Where only a bound is given, the exact number is not on record here.

Data set [1] has as its system T. brucei. To be noted: spiro carbocyclic 2,6-DKP-1-acetohydroxamic acids 1-5 reported previously; cited from earlier work.
Data set [2] concerns bloodstream form T. b. brucei (strain 221). The data set is described as follows: Growth inhibition of cultured bloodstream-form T. brucei (resazurin). The class given is cell-based, Trypanosoma brucei. To be noted: for times more potent than 18 / times more potent than the nonmethylated counterpart / times more potent than the unsubstituted parent: T. brucei IC50; for times more potent than the nonmethylated counterpart: 21 vs 18, 22 vs 19, 23 vs 20, 26 vs 24; for IC50 / IC90: cultured bloodstream-form Trypanosoma brucei, pH = 7.4, mean of triplicate ± SEM; for IC50: concentration inhibiting growth by 50%; for IC90: concentration inhibiting growth by 90%; for trypanocidal activity (in words): bloodstream-form T. brucei; for times more potent than the unsubstituted parent: 19 and 20 vs 18, 25 vs 24, 28 vs 27. On the procedure:
The new hydroxamic acid derivatives 18–28 were tested against bloodstream-form T. brucei in vitro. The results are presented in Table 1, and are expressed as IC50 and IC90 values. […]
Reference: minimized structure, heterocycle and adamantane cage).
IV. Experimental procedures for the biological evaluation of the compounds
Growth inhibition analysis was carried out using bloodstream form T. b. brucei (strain 221) cultured at
37 °C, as previously described.8 Briefly, experiments were performed using 96-well microtiter plates (200
μL volumes), with each assay initiated with 2.5 x10^4 parasites mL−1, and test compounds then added at 7
concentrations in a range that had been established in preliminary experiments to encompass both EC50
and EC90 values. Plates were incubated for 48 hours, resazurin (20 μL at 0.125 mg mL−1) was then added,
and the plates re-incubated for 16 hours. Fluorescence was determined using a BMG FLUOstar Omega plate
reader (excitation 545 nm, emission 590 nm), and the data analysed using GraphPad Prism 9.0 software.
The data are expressed as IC50/IC90 ± SD, and are the average of 3 independent replicates. […]

Data set [3] deals with L6 cells (a rat myoblast line). The data set is described as follows: Cytotoxicity against cultured rat skeletal myoblast L6 cells (resazurin). The class given is cell-based. Particulars: for Selectivity indices (SIs): ratio of the IC50 for L6 cells and T. brucei; for IC50: cultured rat skeletal myoblast L6 cells, mean of triplicate ± SEM. On the procedure: (§1) To determine cytotoxicity, L6 cells (a rat myoblast line) were seeded at 1x104 mL−1 into 96-well microtiter plates (200 μL of growth medium), at a range of compound concentrations. After 6 days incubation at 37°C, 20 μL resazurin (0.125 mg mL−1) was added to each well. The plates were incubated for 6 hours, and fluorescence determined by plate reader, as above. […]

Experiment in data set [4]: as above
To be noted: rat, L6 rat skeletal myoblast cells, cultured rat skeletal myoblast L6 cells; mean of triplicate ± SEM. The class given is cell-based. On the procedure: as §1

Take `O=C(CN1C(=O)C(Cc2ccc(Cl)cc2)NC2(C1=O)C1CC3CC(C1)CC2C3)NO` (stereo not drawn) [Compound 3]: the IC50 in data set [1] was 32 nM.

As for `CC(C)C[C@@H]1NC2(C(=O)N(CC(=O)N(C)CC(=O)NO)C1=O)C1CC3CC(C1)CC2C3` (stereo partly drawn) [Compound 22], in data set [2], the “times more potent than 18” value turned out to be 735 fold and the “times more potent than the nonmethylated counterpart” value was 12 fold. In data set [2] (Trypanosoma brucei), this compound returned an IC50 of 34 ± 2 nM and an IC90 of 0.057 ± 0.005 µM. Besides, the “Selectivity indices (SIs)” value in data set [3] is reported as 940. In data set [4], this compound came in with an IC50 at 6 days of 32 ± 3 µM.

In the case of `O=C(CN1C(=O)[C@@H](Cc2ccccc2)NC2(C1=O)C1CC3CC(C1)CC2C3)NO` (stereo partly drawn) [Compound 1g], the half-inhibitory concentration (IC50) in data set [1] is 9.1 nM.

Take `O=C(CNC(=O)CN1C(=O)CNC2(C1=O)C1CC3CC(C1)CC2C3)NO` (stereo not drawn) [Compound 18]: the “fold loss in potency” value in data set [2] (T. brucei IC50 relative to compound 1a (insertion of acetamido portion)) was 278 fold. Moreover, in data set [2] (Trypanosoma brucei), half-maximal inhibition (IC50) required 25000 ± 3000 nM and the 90% effect level (IC90) was put at 36 ± 2 µM. Besides, the “trypanocidal activity (in words)” value in data set [2] is given as “marginal activity”.

For `O=C(CNC(=O)CN1C(=O)[C@H](Cc2ccccc2)NC2(C1=O)C1CC3CC(C1)CC2C3)NO` (stereo partly drawn) [Compound 20], in data set [2], the “times more potent than the unsubstituted parent” value stood at 20 fold. In data set [2] (Trypanosoma brucei), this compound yielded a concentration for half-maximal inhibition (IC50) of 1230 ± 200 nM and an IC90 of 4.88 ± 0.74 µM. For the same compound, the “Selectivity indices (SIs)” value in data set [3] is 24. For the same compound, the IC50 at 6 days in data set [4] worked out at 29 ± 2 µM.

For the compound `CC(C)C[C@@H]1NC2(CCCCCCC2)C(=O)N(CC(=O)NCC(=O)NO)C1=O.Cl` [Compound 25.HCl], in data set [2], the half-inhibitory concentration (IC50) is 850 nM and it took 1.71 µM to reach the 90% level (IC90). For the same compound, in data set [3], the half-inhibitory concentration (IC50) was 249 µM and the “Selectivity indices (SIs)” value was determined as 295.

In the case of `O=C(CN1C(=O)[C@H](Cc2ccccc2)NC2(CCCCCCC2)C1=O)NO` [Compound 4f], in data set [1], the 50% inhibitory concentration (IC50) is 29 nM.

As to `CSCC[C@@H]1NC2(C(=O)N(CC(=O)NO)C1=O)C1CC3CC(C1)CC2C3` (stereo partly drawn) [Compound 1e], the IC50 in data set [1] was 168 nM.

Regarding `O=C(CN1C(=O)CNC2(CCCCCCC2)C1=O)NO` [Compound 4a], the half-inhibitory concentration (IC50) in data set [1] is 300 nM.

In the case of `CN(CC(=O)NO)C(=O)CN1C(=O)CNC2(CCCCCCC2)C1=O` [Compound 26], the “times more potent than the nonmethylated counterpart” value in data set [2] was over 8 fold. In data set [2] (Trypanosoma brucei), this compound yielded an IC50 of 38000 ± 8000 nM.

As to `CN(CC(=O)NO)C(=O)CN1C(=O)CNC2(C1=O)C1CC3CC(C1)CC2C3` (stereo not drawn) [Compound 21], the “times more potent than the nonmethylated counterpart” value in data set [2] stood at 19 fold. In addition, in data set [2] (Trypanosoma brucei), the half-inhibitory concentration (IC50) is 1330 ± 110 nM and the IC90 came out at 3.42 ± 0.85 µM. Moreover, in data set [3], the “Selectivity indices (SIs)” value was 285. The same compound yielded a concentration for half-maximal inhibition (IC50) at 6 days in data set [4] of 376 ± 7 µM.

`O=C(CN1C(=O)C(Cc2ccccc2)NC2(C1=O)C1CC3CC(C1)CC2C3)NO` (stereo not drawn) [Compound 2]: the half-maximal inhibitory concentration (IC50) in data set [1] is 17 nM.

With `CN1CC(=O)N(CC(=O)NO)C(=O)C12CCCCCC2` [Compound 5b], the IC50 in data set [1] is 285 nM.

With `CC(C)C[C@@H]1NC2(CCCCCCC2)C(=O)N(CC(=O)NO)C1=O` [Compound 4d], the 50% inhibitory concentration (IC50) in data set [1] was 72 nM.

As to `CC(C)C[C@@H]1NC2(CCCCCCC2)C(=O)N(CC(=O)NCC(=O)NO)C1=O` [Compound 25], the “times more potent than the unsubstituted parent” value in data set [2] is recorded as over 252 fold. In data set [2] (Trypanosoma brucei), this compound had a half-maximal inhibitory concentration (IC50) of 1190 ± 280 nM and an IC90 of 1.9 ± 0.1 µM. The “Selectivity indices (SIs)” value in data set [3] is on record as 185. Also, in data set [4], the midpoint of inhibition, the IC50 at 6 days, lay at 223 ± 28 µM.

As for `CC(C)C[C@@H]1NC2(C(=O)N(CC(=O)NCC(=O)NO)C1=O)C1CC3CC(C1)CC2C3` (stereo partly drawn) [Compound 19], the “times more potent than the unsubstituted parent” value in data set [2] was 62 fold. In data set [2] (Trypanosoma brucei), this compound returned a concentration for half-maximal inhibition (IC50) of 400 ± 90 nM and an IC90 of 0.98 ± 0.05 µM. For the same compound, the “Selectivity indices (SIs)” value in data set [3] was found to be 90. The compound also gave an IC50 at 6 days in data set [4] of 35 ± 4 µM.

`O=C(CNC(=O)CN1C(=O)CNC2(CCCCCC2)C1=O)NO` [Compound 27] came in with a 50% inhibitory concentration (IC50) in data set [2] (Trypanosoma brucei) of over 30000 nM. In data set [2], the “trypanocidal activity (in words)” value is “inactive”.

As for `CC(C)C[C@@H]1NC2(CCCCCC2)C(=O)N(CC(=O)NCC(=O)NO)C1=O` [Compound 28], the “times more potent than the unsubstituted parent” value in data set [2] is over 18 fold. In data set [2] (Trypanosoma brucei), the concentration for half-maximal inhibition (IC50) was 1650 ± 130 nM and it took 3.33 ± 0.13 µM to reach the 90% level (IC90). Also, the “Selectivity indices (SIs)” value in data set [3] worked out at 235. Also, half-maximal inhibition in data set [4] (IC50 at 6 days) required 390 ± 6 µM.

In the case of `C[C@@H]1NC2(C(=O)N(CC(=O)NO)C1=O)C1CC3CC(C1)CC2C3` (stereo partly drawn) [Compound 1c], in data set [1], the half-maximal inhibitory concentration (IC50) is 134 nM.

On to `CN1CC(=O)N(CC(=O)NO)C(=O)C12CCCCCCC2` [Compound 4b], for which the concentration for half-maximal inhibition (IC50) in data set [1] was 158 nM.

Consider `O=C(CNC(=O)CN1C(=O)CNC2(CCCCCCC2)C1=O)NO` [Compound 24], for which, in data set [2] (Trypanosoma brucei), the IC50 is over 300000 nM and the IC90 was over 300 µM. For the same compound, the “trypanocidal activity (in words)” value in data set [2] was “inactive”.

As for `O=C(CN1C(=O)CNC2(CCCCCC2)C1=O)NO` [Compound 5a], in data set [1], the half-maximal inhibitory concentration (IC50) was 1870 nM.

`CN1CC(=O)N(CC(=O)NO)C(=O)C12C1CC3CC(C1)CC2C3` (stereo not drawn) [Compound 1b]: the concentration for half-maximal inhibition (IC50) in data set [1] is 193 nM.

On to `CC(C)C[C@@H]1NC2(C(=O)N(CC(=O)NO)C1=O)C1CC3CC(C1)CC2C3` (stereo partly drawn) [Compound 1d], for which the IC50 in data set [1] is 283 nM.

As to `O=C(CN1C(=O)CNC2(C1=O)C1CC3CC(C1)CC2C3)NO` (stereo not drawn) [Compound 1a], the half-inhibitory concentration (IC50) in data set [1] was 90 nM.

For `O=C(CN1C(=O)[C@H](Cc2ccccc2)NC2(C1=O)C1CC3CC(C1)CC2C3)NO` (stereo partly drawn) [Compound 1f], the IC50 in data set [1] was 6.8 nM.

With `CN(CC(=O)NO)C(=O)CN1C(=O)[C@H](Cc2ccccc2)NC2(C1=O)C1CC3CC(C1)CC2C3` (stereo partly drawn) [Compound 23], in data set [2], the “times more potent than 18” value stood at 472 fold and the “times more potent than the nonmethylated counterpart” value is on record as 23 fold. In data set [2] (Trypanosoma brucei), this compound came in with an IC50 of 53 ± 11 nM and a concentration for an effect of 90% (IC90) of 0.081 ± 0.003 µM. In addition, the “Selectivity indices (SIs)” value in data set [3] is reported as 470. The same compound returned a half-maximal inhibitory concentration (IC50) at 6 days in data set [4] of 25 ± 2 µM.

In data set [2], `Cl.O=C(CNC(=O)CN1C(=O)[C@H](Cc2ccccc2)NC2(C1=O)C1CC3CC(C1)CC2C3)NO` (stereo partly drawn) [Compound 20.HCl] showed a half-inhibitory concentration (IC50) of 1530 nM and an IC90 of 4.26 µM. In addition, in data set [3], the midpoint of inhibition, the IC50, lay at 25 µM and the “Selectivity indices (SIs)” value is reported as 16.

For the compound `C[C@@H]1NC2(CCCCCCC2)C(=O)N(CC(=O)NO)C1=O` [Compound 4c], in data set [1], the IC50 was 125 nM.
